Assays:
Format in all cases: in vivo
Settings in all cases: rated four to five weeks after treatment
ZEA MAYS L. [1] = test: Preemergence herbicidal evaluation, ZEAMX (Corn, Field)
Method in brief: (§1)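 Values are visual ratings from 0 to 9, judged against a control on stand, vigor, malformation, size, chlorosis and overall appearance. Test compound in aqueous acetone was sprayed onto freshly seeded cups at roughly 0.125 to 0.50 kg per hectare, with scoring four to five weeks later.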

[2] = tested on: SETARIA VIRIDIS, (L) BEAU; test: Postemergence herbicidal evaluation, SETVI (Foxtail, Green)
Method in brief: (§2)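 Compound is dispersed in 50/50 acetone/water containing 0.5% TWEEN®20 and sprayed at 40 psi onto seedlings about two weeks old, delivering about 0.125–0.500 kg/ha. Injury is scored 0–9 four to five weeks later.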

IPOMOEA SPP. = test: Preemergence herbicidal evaluation, IPOSS (Morningglory Spp.)
Method in brief: as §1

ZEA MAYS L. [3] = test: Postemergence herbicidal evaluation, ZEAMX (Corn, Field)
Description: (§3) In the tests, seedling plants are grown in jiffy flats for about two weeks. The test compounds are dispersed in 50/50 acetone/water mixtures containing 0.5% TWEEN®20, a polyoxyethylene sorbitan monolaurate surfactant of Atlas Chemical Industries, in sufficient quantities to provide the equivalent of about 0.125 kg to 0.500 kg per hectare of active compound when applied to the plants through a spray nozzle operating at 40 psi for a predetermined time. After spraying, the plants are placed on greenhouse benches and are cared for in the usual manner, commensurate with conventional greenhouse practices. From four to five weeks after treatment, the seedling plants are examined and rated according to the rating system set forth below. Where more than one test is involved for a given compound, the data are averaged.
(§4) Results of herbicide evaluation are expressed on a rating scale (0-9). The scale is based upon a visual observation of plant stand, vigor, malformation, size, chlorosis and overall plant appearance as compared with a control.

[4] = tested on: TRITICUM AESTIVUM, CV. APOLLO; test: Preemergence herbicidal evaluation, TRZAWO (Wheat, Winter, CV. APOLLO)
Method in brief: as §1

[5] = tested on: ABUTILON THEOPHRASTI, MEDIC.; test: Preemergence herbicidal evaluation, ABUTH (Velvetleaf)
Method in brief: as §1

[6] = tested on: ECHINOCHLOA CRUS-GALLI, (L) BEAU; test: Postemergence herbicidal evaluation, ECHCG (Barnyardgrass)
Method in brief: as §2

[7] = tested on: GLYCINE MAX(L)MERR. CV. WILLIAMS; test: Preemergence herbicidal evaluation, GLXMAW (Soybean, Williams)
Method in brief: as §1

[8] = tested on: AMBROSIA ARTEMISIIFOLIA, L.; test: Preemergence herbicidal evaluation, AMBEL (Ragweed, Common)
Method in brief: as §1

[9] = tested on: ORYZA SATIVA, L. TEBONNET; test: Preemergence herbicidal evaluation, ORYSAT (Rice, Tebonnet)
Method in brief: as §1

CASSIA OBTUSIFOLIA, L. [10] = test: Preemergence herbicidal evaluation, CASOB (Sicklepod)
Method in brief: as §1

CASSIA OBTUSIFOLIA, L. [11] = test: Postemergence herbicidal evaluation, CASOB (Sicklepod)
Description: as §3, §4

[12] = tested on: ECHINOCHLOA CRUS-GALLI, (L) BEAU; test: Preemergence herbicidal evaluation, ECHCG (Barnyardgrass)
Method in brief: as §1

[13] = tested on: TRITICUM AESTIVUM, CV. APOLLO; test: Postemergence herbicidal evaluation, TRZAWO (Wheat, Winter, CV. APOLLO)
Description: as §3, §4

[14] = tested on: AMBROSIA ARTEMISIIFOLIA, L.; test: Postemergence herbicidal evaluation, AMBEL (Ragweed, Common)
Description: as §3, §4

[15] = tested on: ABUTILON THEOPHRASTI, MEDIC.; test: Postemergence herbicidal evaluation, ABUTH (Velvetleaf)
Description: as §3, §4

CHENOPODIUM ALBUM, L. [16] = test: Preemergence herbicidal evaluation, CHEAL (Lambsquarters, Common)
Method in brief: as §1

CHENOPODIUM ALBUM, L. [17] = test: Postemergence herbicidal evaluation, CHEAL (Lambsquarters, Common)
Description: as §3, §4

[18] = tested on: ORYZA SATIVA, L. TEBONNET; test: Postemergence herbicidal evaluation, ORYSAT (Rice, Tebonnet)
Description: as §3, §4

[19] = tested on: GLYCINE MAX(L)MERR. CV. WILLIAMS; test: Postemergence herbicidal evaluation, GLXMAW (Soybean, Williams)
Description: as §3, §4

COC(=O)Cn1c(=O)n(C)c(=O)n(-c2cc(N3C(=O)C4=C(CCCC4)C3=O)c(F)cc2F)c1=O [Compound 10, Methyl 3-[5-(1-cyclohexene-1,2-dicarbox-imido)-2,4-difluorophenyl]-5-methyl-2,4,6-trioxo-s-triazine-1(2H)-acetate]
Herbicide rating (0-9) ZEAMX (ZEA MAYS L. [1]; 0.125 kg/ha): 0.0
Herbicide rating (0-9) ZEAMX (ZEA MAYS L. [1]; 0.250 kg/ha): 0.0
Herbicide rating (0-9) ZEAMX (ZEA MAYS L. [1]; 0.500 kg/ha): 0.0
Herbicide rating (0-9) SETVI ([2]; 0.125 kg/ha): 0.0
Herbicide rating (0-9) SETVI ([2]; 0.250 kg/ha): 0.0
Herbicide rating (0-9) SETVI ([2]; 0.500 kg/ha): 0.0
Herbicide rating (0-9) IPOSS (IPOMOEA SPP.; 0.125 kg/ha): 0.0
Herbicide rating (0-9) IPOSS (IPOMOEA SPP.; 0.250 kg/ha): 0.0
Herbicide rating (0-9) IPOSS (IPOMOEA SPP.; 0.500 kg/ha): 0.0
Herbicide rating (0-9) ZEAMX (ZEA MAYS L. [3]; 0.125 kg/ha): 4.0
Herbicide rating (0-9) ZEAMX (ZEA MAYS L. [3]; 0.250 kg/ha): 4.0
Herbicide rating (0-9) ZEAMX (ZEA MAYS L. [3]; 0.500 kg/ha): 4.0
Herbicide rating (0-9) TRZAWO ([4]; 0.125 kg/ha): 0.0
Herbicide rating (0-9) TRZAWO ([4]; 0.250 kg/ha): 0.0
Herbicide rating (0-9) TRZAWO ([4]; 0.500 kg/ha): 0.0
Herbicide rating (0-9) ABUTH ([5]; 0.250 kg/ha): 0.0
Herbicide rating (0-9) ABUTH ([5]; 0.500 kg/ha): 0.0
Herbicide rating (0-9) ECHCG ([6]; 0.125 kg/ha): 0.0
Herbicide rating (0-9) ECHCG ([6]; 0.250 kg/ha): 0.0
Herbicide rating (0-9) ECHCG ([6]; 0.500 kg/ha): 0.0
Herbicide rating (0-9) GLXMAW ([7]; 0.125 kg/ha): 0.0
Herbicide rating (0-9) GLXMAW ([7]; 0.250 kg/ha): 0.0
Herbicide rating (0-9) GLXMAW ([7]; 0.500 kg/ha): 0.0
Herbicide rating (0-9) AMBEL ([8]; 0.125 kg/ha): 0.0
Herbicide rating (0-9) AMBEL ([8]; 0.250 kg/ha): 0.0
Herbicide rating (0-9) AMBEL ([8]; 0.500 kg/ha): 0.0

CC(C)OC(=O)Cn1c(=O)n(C)c(=O)n(-c2cc(N3C(=O)C4CSCCN4C3=O)c(F)cc2Cl)c1=O (centres unmarked) [Compound 12, Isopropyl 3-{2-chloro-4-fluoro-5-[5,6,8,8a-tetrahydro-1,3-dioxo-1H-imidazo[5,1c][1,4]-thiazin-2(3H)-yl]phenyl}tetrahydro-5-methyl-2,4,6-trioxo-s-triazine-1(2H)-acetate]
Herbicide rating (0-9) ORYSAT ([9]; 0.125 kg/ha): 0.0
Herbicide rating (0-9) ORYSAT ([9]; 0.250 kg/ha): 0.0
Herbicide rating (0-9) ORYSAT ([9]; 0.500 kg/ha): 0.0
Herbicide rating (0-9) CASOB (CASSIA OBTUSIFOLIA, L. [10]; 0.125 kg/ha): 9.0
Herbicide rating (0-9) CASOB (CASSIA OBTUSIFOLIA, L. [10]; 0.250 kg/ha): 9.0
Herbicide rating (0-9) CASOB (CASSIA OBTUSIFOLIA, L. [10]; 0.500 kg/ha): 9.0
Herbicide rating (0-9) CASOB (CASSIA OBTUSIFOLIA, L. [11]; 0.125 kg/ha): 9.0
Herbicide rating (0-9) CASOB (CASSIA OBTUSIFOLIA, L. [11]; 0.250 kg/ha): 9.0
Herbicide rating (0-9) CASOB (CASSIA OBTUSIFOLIA, L. [11]; 0.500 kg/ha): 9.0
Herbicide rating (0-9) ECHCG ([12]; 0.125 kg/ha): 0.0
Herbicide rating (0-9) ECHCG ([12]; 0.250 kg/ha): 0.0
Herbicide rating (0-9) ECHCG ([12]; 0.500 kg/ha): 0.0
Herbicide rating (0-9) TRZAWO ([13]; 0.125 kg/ha): 2.5
Herbicide rating (0-9) TRZAWO ([13]; 0.250 kg/ha): 2.5
Herbicide rating (0-9) TRZAWO ([13]; 0.500 kg/ha): 2.5
Herbicide rating (0-9) AMBEL ([14]; 0.125 kg/ha): 9.0
Herbicide rating (0-9) AMBEL ([14]; 0.250 kg/ha): 9.0
Herbicide rating (0-9) AMBEL ([14]; 0.500 kg/ha): 9.0
Herbicide rating (0-9) ABUTH ([15]; 0.125 kg/ha): 9.0
Herbicide rating (0-9) ABUTH ([15]; 0.250 kg/ha): 9.0
Herbicide rating (0-9) ABUTH ([15]; 0.500 kg/ha): 9.0
Herbicide rating (0-9) CHEAL (CHENOPODIUM ALBUM, L. [16]; 0.125 kg/ha): 9.0
Herbicide rating (0-9) CHEAL (CHENOPODIUM ALBUM, L. [16]; 0.250 kg/ha): 9.0
Herbicide rating (0-9) CHEAL (CHENOPODIUM ALBUM, L. [16]; 0.500 kg/ha): 9.0
Herbicide rating (0-9) TRZAWO ([4]; 0.125 kg/ha): 0.0
Herbicide rating (0-9) TRZAWO ([4]; 0.250 kg/ha): 0.0
Herbicide rating (0-9) TRZAWO ([4]; 0.500 kg/ha): 0.0
Herbicide rating (0-9) CHEAL (CHENOPODIUM ALBUM, L. [17]; 0.125 kg/ha): 9.0
Herbicide rating (0-9) CHEAL (CHENOPODIUM ALBUM, L. [17]; 0.250 kg/ha): 9.0
Herbicide rating (0-9) CHEAL (CHENOPODIUM ALBUM, L. [17]; 0.500 kg/ha): 9.0

C=CCn1c(=O)n(CC=C)c(=O)n(-c2cc(N3C(=O)C4=C(CCCC4)C3=O)c(F)cc2Cl)c1=O [Compound 19, N-[4-Chloro-5-(3,5-diallylhexahydro-2,4,6-trioxo-s-triazin-1-yl)-2-fluorophenyl]-1-cyclohexene-1,2-dicarboximide]
Herbicide rating (0-9) SETVI ([2]; 0.125 kg/ha): 0.0
Herbicide rating (0-9) SETVI ([2]; 0.250 kg/ha): 0.0
Herbicide rating (0-9) SETVI ([2]; 0.500 kg/ha): 0.0
Herbicide rating (0-9) ORYSAT ([18]; 0.125 kg/ha): 2.0
Herbicide rating (0-9) ORYSAT ([18]; 0.250 kg/ha): 2.0
Herbicide rating (0-9) ORYSAT ([18]; 0.500 kg/ha): 2.0
Herbicide rating (0-9) TRZAWO ([13]; 0.125 kg/ha): 2.0
Herbicide rating (0-9) TRZAWO ([13]; 0.250 kg/ha): 2.0
Herbicide rating (0-9) TRZAWO ([13]; 0.500 kg/ha): 2.0
Herbicide rating (0-9) GLXMAW ([19]; 0.125 kg/ha): 1.0
Herbicide rating (0-9) GLXMAW ([19]; 0.250 kg/ha): 1.0
Herbicide rating (0-9) GLXMAW ([19]; 0.500 kg/ha): 1.0
Herbicide rating (0-9) ECHCG ([6]; 0.125 kg/ha): 0.0
Herbicide rating (0-9) ECHCG ([6]; 0.250 kg/ha): 0.0
Herbicide rating (0-9) ECHCG ([6]; 0.500 kg/ha): 0.0

Source: patent publication EP0745599A2, “1-(3-Heterocyclylphenyl)-s-triazine-2,4,6-oxo or thiotrione herbicidal agents” (American Cyanamid Company, priority 1995, dated 1996)
